The term IC50 denotes the midpoint of a concentration-inhibition curve.

The text below walks through data of ChEMBL document CHEMBL1139767, “Dragon method for finding novel tyrosinase inhibitors: Biosilico identification and experimental in vitro assays” (Eur J Med Chem, 2007).

This assay concerns the target T1, Tyrosinase (Agaricus bisporus, UniProt O42713).
T1 sequence (O42713 whole entry): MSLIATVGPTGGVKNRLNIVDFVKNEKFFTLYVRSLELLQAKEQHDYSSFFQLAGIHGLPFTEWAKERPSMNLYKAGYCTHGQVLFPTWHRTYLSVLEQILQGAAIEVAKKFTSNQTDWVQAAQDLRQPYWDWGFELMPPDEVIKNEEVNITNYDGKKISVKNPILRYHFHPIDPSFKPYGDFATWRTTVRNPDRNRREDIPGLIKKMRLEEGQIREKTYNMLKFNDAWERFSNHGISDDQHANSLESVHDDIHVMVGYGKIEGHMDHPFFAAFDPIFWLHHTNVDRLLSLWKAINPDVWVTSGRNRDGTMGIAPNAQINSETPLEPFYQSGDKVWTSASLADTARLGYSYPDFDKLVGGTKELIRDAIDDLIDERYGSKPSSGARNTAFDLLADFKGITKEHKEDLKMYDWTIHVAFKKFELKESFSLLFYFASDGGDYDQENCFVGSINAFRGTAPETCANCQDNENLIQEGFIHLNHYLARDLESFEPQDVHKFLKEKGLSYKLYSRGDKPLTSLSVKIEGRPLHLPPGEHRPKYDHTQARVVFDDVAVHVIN

Each structure is given as a SMILES string.

Description: Inhibition of mashroom tyrosinase

With `CC(=O)N1CCC(N2CCCCC2)CC1`, the IC50 came to 29.9 µM. `Cc1ccc(CN2CCC(N3CCCCC3)CC2)cc1` had an IC50 of 1.72 µM. Consider `O=[N+]([O-])c1ccc(S(=O)(=O)N2CCC(N3CCCCC3)CC2)cc1`, for which the IC50 stood at 111 µM. In the case of `c1ccc(OCCCN2CCC(N3CCCCC3)CC2)cc1` it was 19.5 µM; in that of `C1CCN(C2CCNCC2)CC1` [[1,4']Bipiperidinyl], 111 µM.
